In paper PMC8540642, “Antineoplastic Activity of Rhus trilobata Nutt. (Anacardiaceae) against Ovarian Cancer and Identification of Active Metabolites in This Pathology” (Plants, 2021):
Values after ≈ are worked out from the molar mass of the structure shown. Values joined by “and” are separate entries in the source; they are usually repeats but may differ in a detail not shown here. Identical values can stand only once. Like-named read-outs stand apart in the source and are kept apart here.

Legend:
SKOV-3 cells = assay: MTT cell viability, dose-response curves 24 h; format: cell-based, human; details: for IC50: read-out: IC50 (half-maximal inhibitory concentration), SKOV-3
Protocol: (§1) Cultures (2 × 10^4 cells/well) were seeded with 200 μL of supplemented medium (Sigma®) in 96-well plates (Corning®, Corning, NY, USA) and incubated for 24 h. Cell treatments were 5-200 μg/mL of samples/controls for 24 h. At the end of the treatments, we added MTT (5 mg/mL, Sigma®) for 4 h of incubation, and optical density was measured at λ = 590 nm in a VariosKan® Flash (Thermo-Scientific®, Waltham, MA, USA). The half-maximal inhibitory concentration (IC50) was determined.

BEAS-2B cells = assay: MTT cell viability, dose-response curves 24 h; format: cell-based
Protocol: as §1

CACO-2 cells = assay: MTT cell viability, dose-response curves 24 h; format: cell-based; details: for IC50: read-out: IC50 (half-maximal inhibitory concentration), CACO-2
Protocol: as §1

CHO-K1 cells = assay: MTT cell viability, dose-response curves 24 h; format: cell-based; details: for IC50: read-out: IC50 (half-maximal inhibitory concentration), CHO-K1
Protocol: as §1

OVCAR-3 cells = assay: MTT cell viability, dose-response curves 24 h; format: cell-based; details: for IC50: read-out: IC50 (half-maximal inhibitory concentration), OVCAR-3
Protocol: as §1

KB cell = test system: KB cell; parameters: method as in PMID 4437313; details: Ga isolated from RHTR leaves; cited from earlier work
[1] = test system: ovarian cancer tumoral lesions; parameters: method as in PMID 32276584; details: 50 mg/kg, peritumoral route; cited from earlier work
[2] = Homo sapiens, SK-OV-3, MTT, 24 h
[3] = Homo sapiens, SK-OV-3, MTT, 24 h, value in brackets
[4] = Homo sapiens, BEAS-2B, MTT, read-out: IC50 (half-maximal inhibitory concentration), BEAS-2B
[5] = Homo sapiens, BEAS-2B, MTT, value in brackets, read-out: IC50 (half-maximal inhibitory concentration), BEAS-2B
[6] = Homo sapiens, Caco-2, MTT, 24 h
[7] = Homo sapiens, Caco-2, MTT, 24 h, value in brackets
[8] = Cricetulus griseus, CHO-K1, 24 h, MTT, 24 h
[9] = Cricetulus griseus, CHO-K1, 24 h, MTT, 24 h, value in brackets
[10] = Homo sapiens, OVCAR-3, MTT, 24 h
[11] = Homo sapiens, OVCAR-3, MTT, 24 h, value in brackets

IC50 (SKOV-3 cells; [2]) [µg/mL]	IC50 (SKOV-3 cells; [3]) [µM]	IC50 (CACO-2 cells; [6]) [µg/mL]	IC50 (CACO-2 cells; [7]) [µM]	IC50 (OVCAR-3 cells; [10]) [µg/mL]	IC50 (OVCAR-3 cells; [11]) [µM]	Compound	IC50 (BEAS-2B cells; [4]) [µg/mL]	IC50 (BEAS-2B cells; [5]) [µM]	IC50 (CHO-K1 cells; [8]) [µg/mL]	IC50 (CHO-K1 cells; [9]) [µM]	IC50 (half-maximal inhibitory concentration), BEAS-2B (BEAS-2B cells; MTT) [µg/mL]	IC50 (half-maximal inhibitory concentration), CHO-K1 (CHO-K1 cells; MTT, 24 h) [µg/mL]	other results
200	699	100	349	200	699	O=c1c(O)c(-c2ccc(O)c(O)c2)oc2cc(O)ccc12 [Compound 16, fisetin]	50	175	46	161	–	–	–
50	294	25	147	43	253	O=C(O)c1cc(O)c(O)c(O)c1 [Gallic acid, gallic acid]	–	147	~150	588	25 (≈ 147 µM)	100 (≈ 588 µM)	IC50 (half-maximal inhibitory concentration), BEAS-2B (BEAS-2B cells; MTT, listed as Ga): ~ 150 μg/mL; IC50, KB cell viability (KB cell): 3.1 µg/mL (≈ 18.2 µM); inhibition of tumoral lesions (of progression) [1]: 50%

The next lines start with the compound.

Compound	IC50 (SKOV-3 cells; [2]) [µg/mL]	IC50 (SKOV-3 cells; [3]) [µM]	IC50 (CACO-2 cells; [6]) [µg/mL]	IC50 (CACO-2 cells; [7]) [µM]	IC50 (OVCAR-3 cells; [10]) [µg/mL]	IC50 (OVCAR-3 cells; [11]) [µM]	IC50 (BEAS-2B cells; [4]) [µg/mL]	IC50 (BEAS-2B cells; [5]) [µM]	IC50 (CHO-K1 cells; [8]) [µg/mL]	IC50 (CHO-K1 cells; [9]) [µM]	IC50 (half-maximal inhibitory concentration), BEAS-2B (BEAS-2B cells; MTT) [µg/mL]	IC50 (half-maximal inhibitory concentration), CHO-K1 (CHO-K1 cells; MTT, 24 h) [µg/mL]	other results
O=c1c(O)c(-c2ccc(O)c(O)c2)oc2cc(O)cc(O)c12 [Compound 9, quercetin]	> 200	> 662	150	496	200	662	189	625	127	420	–	–	–
C[C@@H]1O[C@@H](Oc2c(-c3ccc(O)c(O)c3)oc3cc(O)cc(O)c3c2=O)[C@H](O)[C@H](O)[C@H]1O [Compound 12, quercitrin]	–	–	–	–	–	–	–	–	–	–	–	–	IC50 (SKOV-3 cells; Homo sapiens, SK-OV-3, 24 h): > 200 µg/mL and > 446 µM; IC50 (BEAS-2B cells; Homo sapiens, BEAS-2B, read-out: IC50 (half-maximal inhibitory concentration), BEAS-2B): > 200 µg/mL and > 446 µM; IC50 (CACO-2 cells; Homo sapiens, Caco-2, 24 h): 179 µg/mL and 399 µM; IC50 (CHO-K1 cells; Cricetulus griseus, CHO-K1, 24 h): > 200 µg/mL and > 446 µM; IC50 (OVCAR-3 cells; Homo sapiens, OVCAR-3, 24 h): > 200 µg/mL and > 446 µM
myricitrin [Compound 6]	–	–	–	–	–	–	–	–	–	–	160	94	IC50 (half-maximal inhibitory concentration), SKOV-3 (SKOV-3 cells; MTT, 24 h): 197 µg/mL; IC50 (SKOV-3 cells; MTT, 24 h, value in brackets): 424 µM; IC50 (BEAS-2B cells; read-out: IC50 (half-maximal inhibitory concentration), BEAS-2B, MTT, value in brackets): 344 µM; IC50 (half-maximal inhibitory concentration), CACO-2 (CACO-2 cells; MTT, 24 h): > 200 µg/mL; IC50 (CACO-2 cells; MTT, 24 h, value in brackets): > 431 µM; IC50 (CHO-K1 cells; MTT, 24 h, value in brackets): 202 µM; IC50 (half-maximal inhibitory concentration), OVCAR-3 (OVCAR-3 cells; MTT, 24 h): 200 µg/mL; IC50 (OVCAR-3 cells; MTT, 24 h, value in brackets): 431 µM
